In data set [1] the test system is reporter-selectable HCV replicon BB7M4hRLuc in BB7 M4 hRLuc#10 Huh-7 cells. As to the kind of experiment: HCV replicon hRLuc reporter antiviral assay, cell line #10. In kind it is cell-based, Hepatitis C virus. The following applies: cell line #10, hRLuc endpoint, three days incubation. Here is the method: (§1) An HCV replicon reporter assay system can be developed to determine the specific antiviral activity of inhibitors in standard dose response assays. In such assays, the reporter-selectable containing Huh-7 cells are incubated in 96 wells containing serial dilutions of test inhibitors or no inhibitor. At a specified time after incubation, the activities of the viral-encoded reporter genes are measured in the cell lines using the appropriate reporter assay methodologies. Data from the reporter gene measurements can be expressed as the percent of reporter gene activity in inhibitor-treated cells relative to that of inhibitor-free cells. An analysis of the antiviral component of such data allows for the calculation of the fifty-percent effective concentration (EC50).
In another embodiment of the invention, the dual antiviral activity/cytotoxicity reporter assay system, in conjunction with recording cytotoxicity in the same wells by the dye reduction method, can be used to determine the specific antiviral activity of inhibitors in standard dose response assays using three endpoints. In such assays, target cells containing the reporter-selectable replicon in microtiter are incubated for a desired duration of time at 37° C. and 5% CO2 with plates containing serial dilutions of test inhibitors or no inhibitor. After the incubation period, the activities of the viral and target cell-encoded reporter genes, as well as cytotoxicity by the dye reduction method, are measured using the appropriate dual reporter assay methods subsequent to the measurement of cellular proliferation by dye reduction. Data from the reporter gene and cellular proliferation measurements can be expressed as the percent of reporter gene activity or optical density (OD) reading in inhibitor-treated cells relative to that of inhibitor-free cells. […] The therapeutic index (TI), which is a measurement of the specific antiviral activity of an inhibitor, can then be calculated by dividing the cytotoxicity (CC50) by the antiviral activity (EC50).
For orientation: A replicon is a self-replicating genome or part of one, used to study replication in cells.

The subject of data set [2] is B6b dual reporter replicon cell line (Huh-7). The following applies: read-out: CC50 (FLuc), three days incubation. The text has this:
(§2) In the current invention, two end points will be used to measure CC50 values. The first is XTT dye reduction methodology and the second is the use of the second reporter gene integrated in the nucleus of cells carrying the reporter-selectable HCV replicons. In case of both methodologies, a CC50 value will be generated from the same wells from which an EC50 value was obtained. The CC50 value would be generated by calculating % cytotoxicity of the inhibitor/compound treated wells compared to the no inhibitor/compound well resulting in generation of a dose dependent curve to obtain the value that was responsible for the death of 50% of the cells.
(§3) Cell line BB7 M4 hRLuc#10 was grown in DMEM without phenol red (catalog # 1053-028) at 10% FBS with 4 mM L-glutamine, 1×Pen-step, 1×non-essential amino acids, and 200 μg/ml G418 (all from Gibco BRL/Invitrogen). Line B6b was grown in the same media with the addition of 6 μg/ml Blasticidin (ICN Biomedicals). Experiments in these replicon lines were carried out in 96-well black wall, clear-bottom plates (Costar®; Corning Incorporated). Cells were seeded as diagrammed in the figure below at a density of 2×10^4/well in 100 μl DMEM (described above) without G418 or Blasticidin. […]
(§4) Cell line BB7 M4 hRLuc #10 contained the selectable reporter replicon BB7 M4-hRLuc, which served as an anti-viral marker, but cytotoxicity had to be measured by XTT. […]

Data set [3] shares this test system. The data set is described as follows: XTT dye reduction cytotoxicity, cell line B6b. The following applies: read-out: CC50 (XTT), three days incubation.
Text: as §2, §3, §4
On the technique in general: Tetrazolium dyes change colour on reduction, which living cells bring about.

Data set [4] has as its system reporter-selectable HCV replicon BB7M4hRLuc in B6b Huh-7 cells. As to the kind of experiment: HCV replicon hRLuc reporter antiviral assay, dual reporter cell line B6b. In kind it is cell-based, Hepatitis C virus. The following applies: hRLuc endpoint, three days incubation. Here is the method: as §1
In another embodiment of the invention, the dual antiviral activity/cytotoxicity reporter assay system, in conjunction with recording cytotoxicity in the same wells by the dye reduction method, can be used to determine the specific antiviral activity of inhibitors in standard dose response assays using three endpoints. In such assays, target cells containing the reporter-selectable replicon in microtiter are incubated for a desired duration of time at 37° C. and 5% CO2 with plates containing serial dilutions of test inhibitors or no inhibitor. After the incubation period, the activities of the viral and target cell-encoded reporter genes, as well as cytotoxicity by the dye reduction method, are measured using the appropriate dual reporter assay methods subsequent to the measurement of cellular proliferation by dye reduction. Data from the reporter gene and cellular proliferation measurements can be expressed as the percent of reporter gene activity or optical density (OD) reading in inhibitor-treated cells relative to that of inhibitor-free cells. An analysis of the antiviral component of such data allows for the calculation of the fifty-percent effective concentration (EC50) or ninety-percent effective concentration […] of an inhibitor. In addition, an analysis of the cytotoxicity component of the data can be used to calculate the 50% cytotoxicity concentration (CC50) of an inhibitor. The therapeutic index (TI), which is a measurement of the specific antiviral activity of an inhibitor, can then be calculated by dividing the cytotoxicity (CC50) by the antiviral activity (EC50).

Data set [5] concerns BB7 M4 hRLuc#10 replicon cell line (Huh-7). As to the kind of experiment: XTT dye reduction cytotoxicity, cell line #10. The following applies: read-out: CC50 (XTT); cell line #10, XTT dye reduction, three days incubation.
Text: as §2, §3, §4

Several values for one entry are separate records, joined by “and”; a condition that tells them apart may be missing. Identical values can stand only once. Like-named read-outs stand apart in the source and are kept apart here.

As usually defined, the CC50 is the concentration that lowers cell viability or growth by half. Consider `OC[C@H]1O[C@@H](n2cnc3cc(Cl)c(Cl)cc32)[C@H](O)[C@@H]1O` [DRB, 5,6-dichlorobenzimidazole riboside], for which the EC90 in data set [1] was 50.2 µM and 58 µM; in data set [4] (read-out: EC90), 43.5 µM and 55 µM. The EC50 in data set [1] (read-out: EC50) was 21.5 µM and 33.2 µM; in data set [4] (read-out: EC50) it was 34.1 µM and 53.7 µM. Further, the CC50 in data set [2] is 85.1 µM and 60.7 µM; in data set [3], 48.7 µM and 40.4 µM; in data set [5] it was 53.6 µM and 48.7 µM.

Take interferon alpha [IFN]: in data set [1], the EC50 was 0.38 IU/ml and 0.67 IU/ml. Besides, in data set [4], the EC50 is 0.39 IU/ml and 0.43 IU/ml; the EC90 was 2.1 IU/ml and 2.6 IU/ml.
